Results from US20090042991A1, “Methods of increasing natural killer cell activity for therapy” (priority 2005, published 2009).
Where “and” joins values, the source holds several entries; their conditions need not be identical. Identical values can stand only once. Entries after “also recorded” stand apart in the source; their conditions may differ.

Key:
[1] = Phase I trial: pharmacokinetics in plasma by LC/MS
Experimental: Pharmacokinetic (PK) studies were performed during cycle 1 using liquid chromatography/mass spectrometry (LC/MS) to measure both compounds in plasma. Heat shock protein 70 (Hsp70) was measured in plasma before and after treatment.

NK cell activity [2] = assay: NK cell cytotoxic activity of patient PBMC (K562/eGFP flow cytometry), melanoma study; format: in vivo, human; conditions: for % tumor cell lysis pre-dose: baseline before dosing
Source text: (§1) The following procedure can be employed to assay NK cell activity in a subject. The procedure is adapted from Kantakamalakul W, Jaroenpool J, Pattanapanyasat K. A novel enhanced green fluorescent protein (EGFP)-K562 flow cytometric method for measuring natural killer (NK) cell cytotoxic activity. J Immunol Methods. 2003 Jan. 15; 272:189-197, the entire teachings of which are incorporated herein by reference.
(§2) Materials and methods: Human erythroleukaemic cell line, K562, was obtained from American Type Culture Collection (CCL-243, American Type Culture Collection, Manassas, Va.), and cultured in RPMI-1640 medium (Cat#1875-093Gibco Invitrogen Corp, Carlsbad, Calif.) supplemented with 10% heat inactivated fetal calf serum (Gibco), 2 mM L-glutamin, 100 μg/ml streptomycin and 100 IU/ml penicillin at 37° C. with 5% CO2. K562 cells were transduced with retroviral vector which encode green fluorescent protein (eGFP). Stable cell line was selected with antibiotic, G418.
(§3) The subject's peripheral blood mononuclear cells (PBMCs) were prepared by clinical study sites and received in BD Vacutainer Cell Preparation Tube with sodium heparin (Product Number: 362753, Becton Dickinson, Franklin Lakes, N.J.).
(§4) Effector cells alone and target cells alone were used as controls. All tubes were incubated at 37° C. with 5% CO2 for about 3.5 hr. Ten microliters of propidium iodide (PI) at a concentration of 1 mg/mL was added t each tube including effector and target control tubes and then incubated at room temperature for 15 min.
(§5) Cytotoxic activity was analyzed with a FACSCalibur flow cytometer (Becton Dickinson). Linear amplification of the forward and side scatter (FSC/SSC) signals, as well as logarithmic amplification of eGFP and PI emission in green and red fluorescence were obtained. Ten thousand events per sample tube with no gating for acquisition were collected for analysis. Data analysis for two-parameter dot plots for eGFP versus PI was performed using CELLQuest (Becton Dickinson Biosciences) software to enumerate live and dead target cells. Debris and dead cells were excluded by setting a threshold of forward light scatter.
The study will continue to Stage 2 if 7 or more patients have a response of stable disease or better, or at least 2 patients have a partial response or better. A safety assessment was performed with the first 6 patients enrolled as the weekly dose schedule had not previously been studied in humans. The primary endpoint is non-progression rate (NPR) at 3 months and response rate. Pharmacodynamic parameters include pre and post-dose NK cell activity in blood and when possible, tumor biopsies.
(§6) Best Response indicates an evaluation of the patient's tumor: SD indicates less than 20% of an increase and less than 30% of a decrease in the sum of the longest diameters as compared to baseline; and PD=at least a 20% increase in the sum of the longest diameters as compared to baseline. NK Activity indicates the change in NK activity before and after dosing.

soft tissue sarcomas = assay: Phase 2 study: tumor response with paclitaxel; format: in vivo, human
Source text: as §6, with “Major inclusion criteria are refractory or recurrent soft tissue sarcomas other than gastrointestinal stromal tumor (GIST), with evidence of recent progression. […] Best” for “Best”, “tumor: PR=at least a 30% decrease in the sum of the longest diameters as compared to baseline;” for “tumor:”

NK cell activity [3] = assay: NK cell cytotoxic activity of patient PBMC (K562/eGFP flow cytometry), sarcoma study; format: in vivo, human; conditions: for % tumor cell lysis post-dose / NK activity (change before and after dosing) / % tumor cell lysis pre-dose: Paclitaxel 80 + Cmpnd (1) 213 mg/M^2 weekly; for % tumor cell lysis pre-dose: baseline before dosing
Source text: as §1, §2, §3, §4, §5
as §6, with “tumor: PR=at least a 30% decrease in the sum of the longest diameters as compared to baseline;” for “tumor:”

Sarcoma study: safety = format: in vivo, human; conditions: 213 mg/m2 Compound (1) and 80 mg/m2 paclitaxel weekly
Experimental: The study is a 2 stage design, enrolling 30 patients in the first stage and adding 50 patients to total 80 if certain continuation criteria are met. Major inclusion criteria are refractory or recurrent soft tissue sarcomas other than gastrointestinal stromal tumor (GIST), with evidence of recent progression. […] For example, the compounds were administered together 3 weeks out of 4 on Days 1, 8, and 15 of a 28 day cycle as a 1 hour IV infusion. 30 Patients have been enrolled to completed accrual of Stage 1.

[4] = Paclitaxel 80 + Cmpnd (1) 106 mg/M^2 weekly, Effector/Target 80:1, one value per subject
[5] = Paclitaxel 80 + Cmpnd (1) 213 mg/M^2 weekly, Effector/Target 80:1, one value per subject
[6] = Paclitaxel 80 + Cmpnd (1) 213 mg/M^2 weekly, Effector/Target (40:1), subject 15
[7] = Effector/Target 80:1, one value per subject
[8] = Effector/Target (40:1), subject 30

In the case of `CN(NC(=O)CC(=O)NN(C)C(=S)c1ccccc1)C(=S)c1ccccc1` [Compound (1)], the PK linearity ([1]; Compound (1) 44-525 mg/m2, unaffected by paclitaxel dose) is reported as “linear PK”, the terminal-phase half life ([1]; human plasma, IV over 3 hours co-administered with paclitaxel, cycle 1) is reported as 56.4 ± 13.8 min and the “% tumor cell lysis post-dose” value (NK cell activity [2]; Paclitaxel 80 + Cmpnd (1) 106 mg/M^2 weekly, 7 days after second dose, Effector/Target 80:1, one value per subject) is reported as 7.74% and 2.43%. The “NK activity (change before and after dosing)” value (NK cell activity [2]; [4]) was “increase; also recorded: decrease”, the “% tumor cell lysis post-dose” value (NK cell activity [2]; Paclitaxel 80 + Cmpnd (1) 213 mg/M^2 weekly, 7 days after second dose, Effector/Target 80:1, one value per subject) was 10.77% and 19.78% and 26.52% and 8.64% and 18.77% and 5.2% and 26.31% and 7.2% and the “NK activity (change before and after dosing)” value (NK cell activity [2]; [5]) was “increase; also recorded: no change; also recorded: decrease”. For the same compound, the “% tumor cell lysis post-dose” value (NK cell activity [2]; [6]) was 10.01%, the “NK activity (change before and after dosing)” value (NK cell activity [2]; [6]) was “(increase)” and the “% tumor cell lysis pre-dose” value (NK cell activity [2]; [4]) was 2.32% and 6.13%. For the same compound, the “% tumor cell lysis pre-dose” value (NK cell activity [2]; [5]) was 3.83% and 19.71% and 41.61% and 8.6% and 24.76% and 16.49% and 15.4% and 10.81%, the “% tumor cell lysis pre-dose” value (NK cell activity [2]; [6]) was 3.5% and the “patients with statistically significant increase in NK cell activity pre- to post-dose” value (NK cell activity [2]; original patients of Table 3) was “four of the original patients”. For the same compound, the “Best Response cycle 2” value (soft tissue sarcomas; Paclitaxel 80 + Cmpnd (1) 213 mg/M^2 weekly, one value per subject) was “SD (less than 20% of an increase and less than 30% of a decrease in the sum of the longest diameters as compared to baseline); also recorded: PD (at least a 20% increase in the sum of the longest diameters as compared to baseline)”, the “patients with at least a 20% increase in sum of longest diameters (PD)” value (soft tissue sarcomas; patients completing the study (#23-#29, #31-33)) was “five patients” and the “% tumor cell lysis post-dose” value (NK cell activity [3]; 7 days after second dose, Effector/Target 80:1, one value per subject) was 14.74% and 22.9% and 28.13% and 17.18% and 5.46% and 7.41% and 7.84% and 30.48% and 20.04% and 11.86%. The “NK activity (change before and after dosing)” value (NK cell activity [3]; [7]) was “decrease; also recorded: increase; also recorded: no change”, the “% tumor cell lysis post-dose” value (NK cell activity [3]; [8]) was 9.91% and the “NK activity (change before and after dosing)” value (NK cell activity [3]; [8]) was “no change”. The “% tumor cell lysis pre-dose” value (NK cell activity [3]; [7]) was 22.33% and 10.6% and 17.93% and 6.58% and 2.62% and 13.03% and 15.77% and 4.28% and 20.74% and 34.28%, the “% tumor cell lysis pre-dose” value (NK cell activity [3]; [8]) was 9.88% and the “patients with decrease in NK cell activity pre- to post-dose” value (NK cell activity [3]; original patients of Table 4) was “four of the original patients”. The “patients with statistically significant increase or no change in NK cell activity pre- to post-dose” value (NK cell activity [3]; original patients of Table 4) was “seven of the original patients” and the “tolerability of addition of Compound (1) to weekly paclitaxel schedule” value (Sarcoma study: safety) was “well-tolerated”.
